Biological target: T1, Activated human p38α (Homo sapiens, UniProt Q16539)
T1 construct: purchased Upstate Biotechnology Inc. 14-251
Test: p38MAP kinase inhibition test
Type: biochemical
Settings: at a concentration of 1 μmol/L; substrate myelin basic protein, ATP 20 μmol/L, [γ-32P]ATP; read-out: enzyme inhibitory activity
In short: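 Phosphorylation of myelin basic protein (20 μg/assay) by the kinase measured via [γ-32P]ATP incorporation at 20 μmol/L ATP, pH 7.2 MOPS buffer, 30° C. for 15 min. Labelled substrate bound to P81 paper, washed, and quantified by scintillation counting; compounds added in DMSO.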

T1 sequence (Q16539 whole entry): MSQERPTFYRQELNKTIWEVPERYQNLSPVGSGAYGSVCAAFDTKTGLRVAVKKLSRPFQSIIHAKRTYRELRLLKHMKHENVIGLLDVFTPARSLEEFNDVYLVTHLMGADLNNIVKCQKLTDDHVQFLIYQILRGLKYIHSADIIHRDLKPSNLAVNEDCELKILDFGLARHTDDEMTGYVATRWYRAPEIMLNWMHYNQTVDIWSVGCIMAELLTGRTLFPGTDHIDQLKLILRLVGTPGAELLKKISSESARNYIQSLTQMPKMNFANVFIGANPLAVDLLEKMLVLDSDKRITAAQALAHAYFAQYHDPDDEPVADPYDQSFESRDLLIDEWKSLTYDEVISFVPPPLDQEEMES

Compound `COc1cc2nc(NC(C)C)ncc2cc1-c1cc(NC(=O)c2ccc[nH]2)ccc1C` [Compound 232, 2-Isopropylamino-7-methoxy-6-{2-methyl-5-[(1H-pyrrol-2-yl)carbonylamino]phenyl}quinazoline] has an inhibition at 1 µM of at least 50%.
`COc1cc2nc(NC(C)C)ncc2cc1-c1cc(NC(C)=O)ccc1F` [Compound 233, 6-(5-Acetylamino-2-fluorophenyl)-2-isopropylamino-7-methoxyquinazoline] gave an inhibition at 1 µM of at least 50%.
In the case of `COc1ccc(NC(C)=O)cc1-c1cc2cnc(NC(C)C)nc2cc1OC` [Compound 234, 6-(5-Acetylamino-2-methoxyphenyl)-2-isopropylamino-7-methoxyquinazoline], the inhibition at 1 µM is reported as at least 50%.
With `COc1cc2nc(NC3CCN(S(C)(=O)=O)CC3)ncc2cc1-c1ccccc1C=O` [Compound 237, 6-(2-Formylphenyl)-7-methoxy-2-[1-(methylsulfonyl)piperidin-4-ylamino]quinazoline] the inhibition at 1 µM was at least 50%.
`COc1cc2nc(NC3CCN(S(C)(=O)=O)CC3)ncc2cc1-c1cccc(NC(C)=O)c1` [Compound 238, 6-(3-Acetylaminophenyl)-7-methoxy-2-[1-(methylsulfonyl)piperidin-4-ylamino]quinazoline] showed an inhibition at 1 µM of at least 50%.
In the case of `COc1cc2nc(NC3CCN(S(C)(=O)=O)CC3)ncc2cc1-c1ccccc1NC(C)=O` [Compound 239, 6-(2-Acetylaminophenyl)-7-methoxy-2-[1-(methylsulfonyl)piperidin-4-ylamino]quinazoline], the inhibition at 1 µM is reported as at least 50%.
In the case of `COc1cc2nc(NC3CCN(S(C)(=O)=O)CC3)ncc2cc1-c1cccc(O)c1` [Compound 240, 6-(3-Hydroxyphenyl)-7-methoxy-2-[1-(methylsulfonyl)piperidin-4-ylamino]quinazoline], the inhibition at 1 µM is reported as at least 50%.
`COc1cc2nc(NC3CCN(S(C)(=O)=O)CC3)ncc2cc1-c1ccccc1O` [Compound 241, 6-(2-Hydroxyphenyl)-7-methoxy-2-[1-(methylsulfonyl)piperidin-4-ylamino]quinazoline] showed an inhibition at 1 µM of at least 50%.
With `COc1cc2nc(NC3CCN(S(C)(=O)=O)CC3)ncc2cc1-c1ccccc1C(=O)O` [Compound 242, 6-(2-Carboxyphenyl)-7-methoxy-2-[1-(methylsulfonyl)piperidin-4-ylamino]quinazoline] the inhibition at 1 µM was at least 50%.
With `COc1cc2nc(NC3CCOCC3)ncc2cc1-c1cccc(NC(C)=O)c1` [Compound 243, 6-(3-Acetylaminophenyl)-7-methoxy-2-(4-tetrahydropyranylamino)quinazoline] the inhibition at 1 µM was at least 50%.
`CC(C)Nc1ncc2cc(-c3cccc(O)c3)c(O)cc2n1` [Compound 244, 7-Hydroxy-6-(3-hydroxyphenyl)-2-(isopropylamino)quinazoline] showed an inhibition at 1 µM of at least 50%.
With `Cc1ccccc1-c1cc2cnc(NC(C)C)nc2cc1O` [Compound 245, 7-Hydroxy-2-isopropylamino-6-(2-methylphenyl)quinazoline] the inhibition at 1 µM was at least 50%.
`COc1cc2nc(N)ncc2cc1-c1cc(NC(C)=O)ccc1C` [Compound 249, 6-(5-Acetylamino-2-methylphenyl)-2-amino-7-methoxyquinazoline] was tested, and the inhibition at 1 µM was at least 50%.
Work on `CNc1ncc2cc(-c3cc(NC(C)=O)ccc3C)c(OC)cc2n1` [Compound 250, 6-(5-Acetylamino-2-methylphenyl)-7-methoxy-2-(methylamino)quinazoline] yielded an inhibition at 1 µM of at least 50%.
`CNc1ncc2cc(-c3cc(NC(=O)c4ccc[nH]4)ccc3C)c(OC)cc2n1` [Compound 251, 7-Methoxy-2-methylamino-6-{2-methyl-5-[(1H-pyrrol-2-yl)carbonylamino]phenyl}quinazoline] showed an inhibition at 1 µM of at least 50%.
`COc1cc2nc(NC(C)C)ncc2cc1-c1cc(NC(=O)c2ccc[nH]2)ccc1O` [Compound 252, 6-{2-Hydroxy-5-[(1H-pyrrol-2-yl)carbonylamino]phenyl}-2-isopropylamino-7-methoxyquinazoline] showed an inhibition at 1 µM of at least 50%.
`Cc1ccc(NC(=O)c2ccc[nH]2)cc1-c1ccc2nc(NC(C)C)ncc2c1` [Compound 253, 2-Isopropylamino-6-{2-methyl-5-[(1H-pyrrol-2-yl)carbonylamino]phenyl}quinazoline] was tested, and the inhibition at 1 µM was at least 50%.
Compound `CC(=O)Nc1ccc(C)c(-c2ccc3nc(NC(C)C)ncc3c2)c1` [Compound 254, 6-(5-Acetylamino-2-methylphenyl)-2-(isopropylamino)quinazoline] has an inhibition at 1 µM of at least 50%.
In the case of `CC(C)Nc1ncc2cc(-c3cc(NC(=O)c4ccc[nH]4)ccc3CO)ccc2n1` [Compound 255, 6-{2-Hydroxymethyl-5-[(1H-pyrrol-2-yl)carbonylamino]phenyl}-2-(isopropylamino)quinazoline], the inhibition at 1 µM is reported as at least 50%.
Work on `Cc1ccc(NC(=O)c2ccnc(N3CCOCC3)c2)cc1-c1ccc2nc(NC(C)C)ncc2c1` [Compound 256, 2-Isopropylamino-6-{2-methyl-5-[(2-morpholinopyridin-4-yl)carbonylamino]phenyl}quinazoline] yielded an inhibition at 1 µM of at least 50%.
Compound `CC(C)Nc1ncc2cc(-c3cccc(NC(=O)c4ccnc(N5CCOCC5)c4)c3)ccc2n1` [Compound 257, 2-Isopropylamino-6-{3-[(2-morpholinopyridin-4-yl)carbonylamino]phenyl}quinazoline] has an inhibition at 1 µM of at least 50%.
`CC(C)Nc1ncc2cc(-c3cccc(NC(=O)c4ccc[nH]4)c3)ccc2n1` [Compound 258, 2-Isopropylamino-6-{3-[(1H-pyrrol-2-yl)carbonylamino]phenyl}quinazoline] gave an inhibition at 1 µM of at least 50%.
Work on `Cc1ccc(NC(=O)c2ccncc2)cc1-c1ccc2nc(NC(C)C)ncc2c1` [Compound 259, 2-Isopropylamino-6-{2-methyl-5-[(4-pyridyl)carbonylamino]phenyl}quinazoline] yielded an inhibition at 1 µM of at least 50%.
In the case of `Cc1ccc(NC(=O)c2cnccn2)cc1-c1ccc2nc(NC(C)C)ncc2c1` [Compound 261, 2-Isopropylamino-6-[2-methyl-5-(pyrazinylcarbonylamino)phenyl]quinazoline], the inhibition at 1 µM is reported as at least 50%.
`Cc1ccc(NC(=O)c2ccccn2)cc1-c1ccc2nc(NC(C)C)ncc2c1` [Compound 262, 2-Isopropylamino-6-{2-methyl-5-(2-pyridylcarbonylamino)phenyl}quinazoline] showed an inhibition at 1 µM of at least 50%.
Compound `Cc1ccc(NC(=O)c2ccc[n+]([O-])c2)cc1-c1ccc2nc(NC(C)C)ncc2c1` [Compound 263, 2-Isopropylamino-6-{2-methyl-5-[(pyridine-1-oxide-3-yl)carbonylamino]phenyl}quinazoline] has an inhibition at 1 µM of at least 50%.
Work on `Cc1ccc(NC(=O)C2CC2)cc1-c1ccc2nc(NC(C)C)ncc2c1` [Compound 264, 6-(5-Cyclopropylcarbonylamino-2-methylphenyl)-2-(isopropylamino)quinazoline] yielded an inhibition at 1 µM of at least 50%.
`Cc1ccc(NC(=O)C2CCC2)cc1-c1ccc2nc(NC(C)C)ncc2c1` [Compound 265, 6-(5-Cyclobutylcarbonylamino-2-methylphenyl)-2-(isopropylamino)quinazoline] showed an inhibition at 1 µM of at least 50%.
`CC(C)Nc1ncc2cc(-c3cc(NC(=O)c4ccnc(N5CCOCC5)c4)ccc3O)ccc2n1` [Compound 266, 6-{2-Hydroxy-5-[(2-morpholinopyridin-4-yl)carbonylamino]phenyl]-2-(isopropylamino)quinazoline] showed an inhibition at 1 µM of at least 50%.
Work on `CC(C)Nc1ncc2cc(-c3cc(NC(=O)c4ccc[nH]4)ccc3O)ccc2n1` [Compound 267, 6-{2-Hydroxy-5-[(1H-pyrrol-2-yl)carbonylamino]phenyl}-2-(isopropylamino)quinazoline] yielded an inhibition at 1 µM of at least 50%.
In the case of `Cc1ccc(C(=O)NC2CC2)cc1-c1ccc2nc(NC(C)C)ncc2c1` [Compound 268, 6-(5-Cyclopropylcarbamoyl-2-methylphenyl)-2-(isopropylamino)quinazoline], the inhibition at 1 µM is reported as at least 50%.
In the case of `CC(C)Nc1ncc2cc(-c3cccc(C(=O)NC4CC4)c3)ccc2n1` [Compound 270, 6-[3-(Cyclopropylcarbamoyl)phenyl]-2-(isopropylamino)quinazoline], the inhibition at 1 µM is reported as at least 50%.
`CC[C@H](C)Nc1ncc2cc(-c3cc(NC(C)=O)ccc3CO)ccc2n1` [Compound 272, (S)-6-[5-acetylamino-2-(hydroxymethyl)phenyl]-2-(sec-butylamino)quinazoline] showed an inhibition at 1 µM of at least 50%.
`CC[C@H](C)Nc1ncc2cc(-c3cc(NC(=O)c4ccc[nH]4)ccc3CO)ccc2n1` [Compound 273, (S)-2-(sec-Butylamino)-6-{2-hydroxymethyl-5-[(1H-pyrrol-2-yl)carbonylamino]phenyl}quinazoline] showed an inhibition at 1 µM of at least 50%.
With `CC(=O)Nc1cccc(-c2ccc3nc(NC4CCN(S(C)(=O)=O)CC4)ncc3c2)c1` [Compound 274, 6-[3-(Acetylamino)phenyl]-2-[1-(methylsulfonyl)piperidin-4-ylamino]quinazoline] the inhibition at 1 µM was at least 50%.
`Cc1ccccc1-c1ccc2nc(NC3CCN(S(C)(=O)=O)CC3)ncc2c1` [Compound 275, 6-(2-Methylphenyl)-2-[1-(methylsulfonyl)piperidin-4-ylamino]quinazoline] was tested, and the inhibition at 1 µM was at least 50%.
For `CS(=O)(=O)N1CCC(Nc2ncc3cc(-c4cccc(O)c4)ccc3n2)CC1` [Compound 276, 6-(3-Hydroxyphenyl)-2-[1-(methylsulfonyl)piperidin-4-ylamino]quinazoline], the inhibition at 1 µM was at least 50%.
With `CC(=O)Nc1cccc(-c2cc3cnc(NC(C)C)nc3cc2C)c1` [Compound 277, 6-[3-(Acetylamino)phenyl]-2-isopropylamino-7-methylquinazoline] the inhibition at 1 µM was at least 50%.
With `Cc1cc2nc(NC(C)C)ncc2cc1-c1cccc(NC(=O)c2ccc[nH]2)c1` [Compound 278, 2-Isopropylamino-7-methyl-6-{3-[(1H-pyrrol-2-yl)carbonylamino]phenyl}quinazoline] the inhibition at 1 µM was at least 50%.
`Cc1cc2nc(NC(C)C)ncc2cc1-c1cccc(NC(=O)c2ccnc(N3CCOCC3)c2)c1` [Compound 279, 2-Isopropylamino-7-methyl-6-{3-[(2-morpholinopyridin-4-yl)carbonylamino]phenyl}quinazoline] showed an inhibition at 1 µM of at least 50%.
